Key:
[1] = tested on: COX-2; experiment: UV-induced COX-2 expression in mouse skin tissue, immunohistochemical staining; type: in vivo; details: hairless mouse; 200 μL of 1 mM topically; 4 times of UV irradiation
Protocol: In order to confirm the in vitro experiment result performed on the human keratinocyte HaCaT cells in an animal model, experiment was carried out as follows using hairless mouse (SKH-1). Test groups were as follows: non-treated group—treated with acetone only without UV irradiation; test group A—treated with 200 μL of 1 mM capsiate dissolved in acetone every 24 hours without UV irradiation; control group—treated with UV and acetone; test group B—treated with UV and 200 μL of 1 mM capsiate dissolved in acetone every 24 hours (Unspecified conditions are the same as in Examples 5-7.).
Capsiate was applied on the back of the mouse. 1 hour later, UV was irradiated at an intensity of 2.5 kJ/m^2. 1 hour later, capsiate was applied again at the same concentration in order to prevent rash which may occur immediately after UV irradiation. Thereafter, capsiate was applied every 24 hours and UV irradiation was carried out every other day at an intensity of 2.5 kJ/m^2 for 4 times. In order to investigate the change of tissue and intracellular mechanism (signaling), the mouse was euthanized 1 hour after the final UV irradiation. Skin tissue was taken from the back of the mouse and subjected to skin biopsy following observation.
In order to reconfirm this effect, immunohistochemical staining was carried out as follows. […]

[2] = tested on: MMP-2; experiment: UV-induced MMP-2 mRNA expression, RT-PCR; type: cell-based, human; details: HaCaT cells; 10, 25, 50 μM; UV 100 J/m^2; 36 hours
Protocol: The inhibition effect of capsiate on the expression of MMP-2 and MMP-9, which induce angiogenesis, was investigated through measurement of mRNA expression by RT-PCR and protein expression and activity measurement by zymography.
In order to investigate the inhibition effect of capsiate on MMP expression, 5×10^5 HaCaT cells were placed on a 60 mm Petri dish and cultured for 24 hours in DMEM containing 10% FBS. Subsequently, the cells were cultured for 24 hours in DMEM containing 1% FBS until starvation. Then, after treating with capsiate at different concentrations (10 μM, 25 μM, 50 μM) for 30 minutes, followed by washing 3 times with PBS, UV was irradiated at an intensity of 100 J/m^2. Immediately after the UV irradiation, the cells were washed again with PBS and further cultured for 36 hours in DMEM containing 1% FBS, which was treated with capsiate at the same concentration as in the pre-treatment. The degree of intracellular mRNA expression for MMP-2 and MMP-9 was measured by RT-PCR in the same manner as in Example 3. The degree of MMP expression was compared with that of the non-treated group.

[3] = tested on: T cells; experiment: Proliferation of T cells, thymidine (H3) incorporation; type: cell-based, C57/BL6 mouse; details: mouse spleen T cells; 25 uM; vs control group
Protocol: T cells were isolated from mouse spleen in order to investigate the effect of capsiate on the proliferation of T cells. Specifically, the spleen of C57/BL6 mouse was taken out and pulverized as single cells. After lysing red blood cells using an RBC lysis buffer (Sigma, USA), other cells were washed 3 times using cell culture medium (RPMI 1640 complete medium). The cell culture medium is prepared by adding 10% FBS, 10 mM HEPES, 100 μg/mL penicillin, 100 μg/mL streptomycin, 2 mM L-glutamine, 1 mM sodium pyruvate and 50 uM 2-mercaptoethanol. From the cells, only the T cells were separated using a T cell enrichment column (R&D, USA).
5×10^5 of the isolated T cells were placed on a 96-well plate and capsiate was treated at a concentration of 25 uM. Proliferation of T cells was induced by adding 0.1 μg/mL α-CD3a and 2 μg/mL α-CD28, or 1 μg/mL α-CD3a and 2 μg/mL α-CD28. The degree of cell proliferation was compared to that of the control group which was not treated with capsiate. Specifically, after culturing the T cells for 24 hours, thymidine (H3) was added at a concentration of 1 uCi per well and the T cells were harvested 16 hours later using a membrane filter (Skatron, England) and a cell harvester. The harvested T cells were lysed in LSC cocktail solution (Ultima Gold, PerkinElmer, USA) and H3's CPM value was measured using a beta counter (Packard, USA).

[4] = tested on: MMP-2; experiment: MMP-2 mRNA in mouse skin, RT-PCR; type: in vivo; details: mouse tissue of Example 5; normalized using GAPDH
Protocol: mRNA was extracted from the mouse tissue of each test group of Example 5 and the level of expression thereof was evaluated in order to investigate the effect of capsiate on the expression of MMP-2 and MMP-9 induced by angiogenesis and immune response.
For RNA extraction from the tissue, each mouse tissue was subjected to skin biopsy, quickly frozen in liquid nitrogen and finely ground using a mortar. RNA was extracted from the mouse tissue using Trizol (Invitrogen, USA). PCR (PTC-225 Peltier thermal cycler, MJ Research, USA) was carried out using the RNA as template and using a commercial kit (reverse transcription system, Qiagen, USA). As a result, cDNA for each test group was prepared.
RT-PCR (Rotor Gene 6 series, Corbett Research, Australia) was carried out using thus prepared cDNA as template and using MMP-2 and MMP-9 primers (Qiagen, USA). The level of mRNA expression for MMP was normalized using GAPDH. The level of expression was compared with that of the non-treated group, which was treated with acetone only.

[5] = tested on: ERK; experiment: MAPK signaling after UV, Western blotting: ERK; type: cell-based, human; details: HaCaT cells; 10, 25, 50 μM; 30 minutes after UV irradiation
Protocol: Western blotting was performed in the same manner as in Example 2-1 in order to identify the factor that affects the COX-2 expression regulated by capsiate, except for treating the cells with capsiate at different concentrations (10 μM, 25 μM and 50 μM) prior to UV irradiation, and using rabbit anti-ERK antibody, rabbit anti-p-ERK antibody, rabbit anti-p38 antibody, rabbit anti-p-p38 antibody, rabbit anti-JNK antibody and rabbit anti-p-JNK antibody (cell signaling), and anti-rabbit IgG-HRP conjugation antibody (Zymed) as the secondary antibody, 30 minutes after UV irradiation.

In the case of `COc1cc(COC(=O)CCCC/C=C/C(C)C)ccc1O` [capsiate], the “UV-induced increase of COX-2 in mouse skin tissue (immunohistochemical staining)” value [1] is reported as “effectively inhibited”, the “UV-induced mRNA expression of MMP-2” value [2] is reported as “decreased” and the “proliferation of T cells induced by α-CD3a and α-CD28” value [3] is reported as “significant inhibition”. The “expression of MMP-2 (mRNA) in mouse skin tissue” value [4] was “decreased” and the “phosphorylation of ERK” value [5] was “inhibited”.
